# Laboratory results published in ChEMBL document CHEMBL3885881, “DrugMatrix”.
# Species on record: Rattus norvegicus
# Assay: DrugMatrix - Regimen: Daily Repeat
# Assay type: toxicity, organism-based, Sprague-Dawley
# Set-up: regimen Daily Repeat, gender Male, age 6-8 weeks
# Settings: in vivo, po, route oral GAVAGE; for BASOPHIL / EOSINOPHIL / ERYTHROCYTE COUNT / HEMATOCRIT / HEMOGLOBIN / LEUKOCYTE COUNT / LYMPHOCYTE / MEAN CORPUSCULAR HEMOGLOBIN / MEAN CORPUSCULAR HEMOGLOBIN CONCENTRATION / MEAN CORPUSCULAR VOLUME / MONOCYTE / NEUTROPHIL / NUCLEATED RED BLOOD CELLS / PLATELET COUNT / ABSOLUTE BASOPHIL / ABSOLUTE EOSINOPHIL / ABSOLUTE LYMPHOCYTE / ABSOLUTE MONOCYTE / ABSOLUTE SEGMENTED NEUTROPHIL: tissue Blood; for ALANINE AMINOTRANSFERASE / ALBUMIN / ALKALINE PHOSPHATASE / ASPARTATE AMINOTRANSFERASE / BLOOD UREA NITROGEN / CARBON DIOXIDE / CHLORIDE / CHOLESTEROL / CREATINE PHOSPHOKINASE / CREATININE / GLUCOSE / LACTATE DEHYDROGENASE / LIPASE / PHOSPHORUS / POTASSIUM / SODIUM / TOTAL BILIRUBIN / TOTAL PROTEIN / URIC ACID: tissue Plasma
# [1] = 300 mg/kg, 120 h, dose level M2, time 5 day, vehicle 100 % SALINE
# [2] = 420 mg/kg, 72 h, dose level High, time 3 day, vehicle 100 % WATER
# [3] = 420 mg/kg, 120 h, dose level High, time 5 day, vehicle 100 % WATER
# [4] = […], 72 h, dose 2.5 mg/Kg, dose level Low, time 3 day, vehicle 100 % WATER
# [5] = […], 120 h, dose 2.5 mg/Kg, dose level Low, time 5 day, vehicle 100 % WATER
smiles,measurement,setting,value
CCCc1nn(C)c2c(=O)[nH]c(-c3cc(S(=O)(=O)N4CCN(C)CC4)ccc3OCC)nc12,BASOPHIL,[1],0%
same,EOSINOPHIL,[1],0%
same,ERYTHROCYTE COUNT,[1],5.43 x10E6/uL
same,HEMATOCRIT,[1],35.43%
same,HEMOGLOBIN,[1],14 G/DL
same,LEUKOCYTE COUNT,[1],11.23 x10E3/uL
same,LYMPHOCYTE,[1],91%
same,MEAN CORPUSCULAR HEMOGLOBIN,[1],25.83 pg
same,MEAN CORPUSCULAR HEMOGLOBIN CONCENTRATION,[1],39.53 G/DL
same,MEAN CORPUSCULAR VOLUME,[1],65.33 fL
same,MONOCYTE,[1],0%
same,NEUTROPHIL,[1],9%
same,NUCLEATED RED BLOOD CELLS,[1],0.67 /100WBC
same,PLATELET COUNT,[1],1112.67 x10E3/uL
same,ALANINE AMINOTRANSFERASE,[1],45 u/L
same,ALBUMIN,[1],4.03 G/DL
same,ALKALINE PHOSPHATASE,[1],344 u/L
same,ASPARTATE AMINOTRANSFERASE,[1],70.33 u/L
same,BLOOD UREA NITROGEN,[1],14.67 mg/dL
same,CARBON DIOXIDE,[1],33 mmol/L
same,CHLORIDE,[1],100.33 MEQ/L
same,CHOLESTEROL,[1],70 mg/dL
same,CREATINE PHOSPHOKINASE,[1],212 u/L
same,CREATININE,[1],0.31 mg/dL
same,GLUCOSE,[1],137.33 mg/dL
same,LACTATE DEHYDROGENASE,[1],106 u/L
same,LIPASE,[1],11.33 u/L
same,PHOSPHORUS,[1],10.77 mg/dL
same,POTASSIUM,[1],6.45 MEQ/L
same,SODIUM,[1],146.53 MEQ/L
same,TOTAL BILIRUBIN,[1],0.2 mg/dL
same,TOTAL PROTEIN,[1],5.43 G/DL
same,URIC ACID,[1],0.73 mg/dL
same,ABSOLUTE BASOPHIL,[2],0 CELLS/uL
same,ABSOLUTE EOSINOPHIL,[2],0 CELLS/uL
same,ABSOLUTE LYMPHOCYTE,[2],12448.33 CELLS/uL
same,ABSOLUTE MONOCYTE,[2],74 CELLS/uL
same,ABSOLUTE SEGMENTED NEUTROPHIL,[2],877.67 CELLS/uL
same,BASOPHIL,[2],0%
same,EOSINOPHIL,[2],0%
same,ERYTHROCYTE COUNT,[2],5.64 x10E6/uL
same,HEMATOCRIT,[2],35.27%
same,HEMOGLOBIN,[2],13.43 G/DL
same,LEUKOCYTE COUNT,[2],13.4 x10E3/uL
same,LYMPHOCYTE,[2],92.33%
same,MEAN CORPUSCULAR HEMOGLOBIN,[2],23.8 pg
same,MEAN CORPUSCULAR HEMOGLOBIN CONCENTRATION,[2],38.1 G/DL
same,MEAN CORPUSCULAR VOLUME,[2],62.57 fL
same,MONOCYTE,[2],0.67%
same,NEUTROPHIL,[2],7%
same,NUCLEATED RED BLOOD CELLS,[2],0 /100WBC
same,PLATELET COUNT,[2],944.33 x10E3/uL
same,ALANINE AMINOTRANSFERASE,[2],41.67 u/L
same,ALBUMIN,[2],3.77 G/DL
same,ALKALINE PHOSPHATASE,[2],304 u/L
same,ASPARTATE AMINOTRANSFERASE,[2],72.67 u/L
same,BLOOD UREA NITROGEN,[2],16.33 mg/dL
same,CARBON DIOXIDE,[2],30.33 mmol/L
same,CHLORIDE,[2],102.33 MEQ/L
same,CHOLESTEROL,[2],79.67 mg/dL
same,CREATINE PHOSPHOKINASE,[2],170 u/L
same,CREATININE,[2],0.14 mg/dL
same,GLUCOSE,[2],148 mg/dL
same,LACTATE DEHYDROGENASE,[2],130.33 u/L
same,LIPASE,[2],9.67 u/L
same,PHOSPHORUS,[2],8.4 mg/dL
same,POTASSIUM,[2],5.71 MEQ/L
same,SODIUM,[2],146.4 MEQ/L
same,TOTAL BILIRUBIN,[2],0.23 mg/dL
same,TOTAL PROTEIN,[2],5.6 G/DL
same,URIC ACID,[2],0.5 mg/dL
same,ABSOLUTE BASOPHIL,[3],0 CELLS/uL
same,ABSOLUTE EOSINOPHIL,[3],0 CELLS/uL
same,ABSOLUTE LYMPHOCYTE,[3],8874.67 CELLS/uL
same,ABSOLUTE MONOCYTE,[3],36 CELLS/uL
same,ABSOLUTE SEGMENTED NEUTROPHIL,[3],756 CELLS/uL
same,BASOPHIL,[3],0%
same,EOSINOPHIL,[3],0%
same,ERYTHROCYTE COUNT,[3],5.05 x10E6/uL
same,HEMATOCRIT,[3],32.73%
same,HEMOGLOBIN,[3],12.9 G/DL
same,LEUKOCYTE COUNT,[3],9.67 x10E3/uL
same,LYMPHOCYTE,[3],91.67%
same,MEAN CORPUSCULAR HEMOGLOBIN,[3],25.53 pg
same,MEAN CORPUSCULAR HEMOGLOBIN CONCENTRATION,[3],39.4 G/DL
same,MEAN CORPUSCULAR VOLUME,[3],64.8 fL
same,MONOCYTE,[3],0.33%
same,NEUTROPHIL,[3],8%
same,NUCLEATED RED BLOOD CELLS,[3],0 /100WBC
same,PLATELET COUNT,[3],1090.67 x10E3/uL
same,ALANINE AMINOTRANSFERASE,[3],33.67 u/L
same,ALBUMIN,[3],3.67 G/DL
same,ALKALINE PHOSPHATASE,[3],232 u/L
same,ASPARTATE AMINOTRANSFERASE,[3],57 u/L
same,BLOOD UREA NITROGEN,[3],15.67 mg/dL
same,CARBON DIOXIDE,[3],33.67 mmol/L
same,CHLORIDE,[3],99 MEQ/L
same,CHOLESTEROL,[3],77.67 mg/dL
same,CREATINE PHOSPHOKINASE,[3],155 u/L
same,CREATININE,[3],0.11 mg/dL
same,GLUCOSE,[3],144.67 mg/dL
same,LACTATE DEHYDROGENASE,[3],100 u/L
same,LIPASE,[3],10 u/L
same,PHOSPHORUS,[3],10.2 mg/dL
same,POTASSIUM,[3],5.99 MEQ/L
same,SODIUM,[3],146.03 MEQ/L
same,TOTAL BILIRUBIN,[3],0.17 mg/dL
same,TOTAL PROTEIN,[3],5.83 G/DL
same,URIC ACID,[3],0.63 mg/dL
same,ABSOLUTE BASOPHIL,[4],0 CELLS/uL
same,ABSOLUTE EOSINOPHIL,[4],0 CELLS/uL
same,ABSOLUTE LYMPHOCYTE,[4],7128 CELLS/uL
same,ABSOLUTE MONOCYTE,[4],81 CELLS/uL
same,ABSOLUTE SEGMENTED NEUTROPHIL,[4],891 CELLS/uL
same,BASOPHIL,[4],0%
same,EOSINOPHIL,[4],0%
same,ERYTHROCYTE COUNT,[4],5.44 x10E6/uL
same,HEMATOCRIT,[4],34.27%
same,HEMOGLOBIN,[4],13.2 G/DL
same,LEUKOCYTE COUNT,[4],8.1 x10E3/uL
same,LYMPHOCYTE,[4],88%
same,MEAN CORPUSCULAR HEMOGLOBIN,[4],24.4 pg
same,MEAN CORPUSCULAR HEMOGLOBIN CONCENTRATION,[4],38.53 G/DL
same,MEAN CORPUSCULAR VOLUME,[4],63.23 fL
same,MONOCYTE,[4],1%
same,NEUTROPHIL,[4],11%
same,NUCLEATED RED BLOOD CELLS,[4],0.33 /100WBC
same,PLATELET COUNT,[4],1027 x10E3/uL
same,ALANINE AMINOTRANSFERASE,[4],61 u/L
same,ALBUMIN,[4],4.03 G/DL
same,ALKALINE PHOSPHATASE,[4],377.33 u/L
same,ASPARTATE AMINOTRANSFERASE,[4],87.33 u/L
same,BLOOD UREA NITROGEN,[4],16 mg/dL
same,CARBON DIOXIDE,[4],29.33 mmol/L
same,CHLORIDE,[4],101.67 MEQ/L
same,CHOLESTEROL,[4],61 mg/dL
same,CREATINE PHOSPHOKINASE,[4],188.67 u/L
same,CREATININE,[4],0.1 mg/dL
same,GLUCOSE,[4],163 mg/dL
same,LACTATE DEHYDROGENASE,[4],107.67 u/L
same,LIPASE,[4],8.33 u/L
same,PHOSPHORUS,[4],9.57 mg/dL
same,POTASSIUM,[4],5.88 MEQ/L
same,SODIUM,[4],147.5 MEQ/L
same,TOTAL BILIRUBIN,[4],0.17 mg/dL
same,TOTAL PROTEIN,[4],5.97 G/DL
same,URIC ACID,[4],0.63 mg/dL
same,ABSOLUTE BASOPHIL,[5],0 CELLS/uL
same,ABSOLUTE EOSINOPHIL,[5],0 CELLS/uL
same,ABSOLUTE LYMPHOCYTE,[5],7975.33 CELLS/uL
same,ABSOLUTE MONOCYTE,[5],0 CELLS/uL
same,ABSOLUTE SEGMENTED NEUTROPHIL,[5],658 CELLS/uL
same,BASOPHIL,[5],0%
same,EOSINOPHIL,[5],0%
same,ERYTHROCYTE COUNT,[5],5.39 x10E6/uL
same,HEMATOCRIT,[5],34.73%
same,HEMOGLOBIN,[5],14 G/DL
same,LEUKOCYTE COUNT,[5],8.63 x10E3/uL
same,LYMPHOCYTE,[5],92%
same,MEAN CORPUSCULAR HEMOGLOBIN,[5],26 pg
same,MEAN CORPUSCULAR HEMOGLOBIN CONCENTRATION,[5],40.3 G/DL
same,MEAN CORPUSCULAR VOLUME,[5],64.5 fL
same,MONOCYTE,[5],0%
same,NEUTROPHIL,[5],8%
same,NUCLEATED RED BLOOD CELLS,[5],0.33 /100WBC
same,PLATELET COUNT,[5],629.67 x10E3/uL
same,ALANINE AMINOTRANSFERASE,[5],49.67 u/L
same,ALBUMIN,[5],4.27 G/DL
same,ALKALINE PHOSPHATASE,[5],363.67 u/L
same,ASPARTATE AMINOTRANSFERASE,[5],76 u/L
same,BLOOD UREA NITROGEN,[5],14.33 mg/dL
same,CARBON DIOXIDE,[5],32 mmol/L
same,CHLORIDE,[5],98.67 MEQ/L
same,CHOLESTEROL,[5],77 mg/dL
same,CREATINE PHOSPHOKINASE,[5],203.33 u/L
same,CREATININE,[5],0.13 mg/dL
same,GLUCOSE,[5],145.33 mg/dL
same,LACTATE DEHYDROGENASE,[5],120 u/L
same,LIPASE,[5],9.33 u/L
same,PHOSPHORUS,[5],11.67 mg/dL
same,POTASSIUM,[5],6.39 MEQ/L
same,SODIUM,[5],144.5 MEQ/L
same,TOTAL BILIRUBIN,[5],0.2 mg/dL
same,TOTAL PROTEIN,[5],6.3 G/DL
same,URIC ACID,[5],0.87 mg/dL
